Test results taken from patent publication US8389538B2, “Rexinoid compound having alkoxy group” (National University Corporation Okayama University, priority 2007, dated 2013).
Where two headings read alike, the source gives them in different places.

Tests used:
[1] = test system: Human leukemia cell strain HL-60; assay: HL-60 differentiation induction (NBT reduction method); type: cell-based; conditions: for Retinoid synergistic activity BA(%) / Retinoid activity BA(%): maximum differentiation inducing rate relative to total cell number
Description: Human leukemia cell strain HL-60 differentiates into granulocytes (neutrophils) to come to have an ability to express active oxygen. […] A method for measuring differentiation inducibility of cells into granulocytes by using this principle is referred to as NBT reduction method. So, the differentiation inducibility of the synthesized compound was measured by NBT reduction method. […] Each compound was dissolved in dimethylsulfoxide (DMSO) into 20 mM to prepare a stock solution. NBT was prepared into 0.2 w/v % by using PBS (−) 2 hours before use and incubated at 37° C. TPA was dissolved in ethanol (EtOH) into 2 mg/mL to prepare a stock solution. This TPA solution was prepared into 20 μg/mL by using PBS (−) at the time of use. […] The action of RXR agonist is enhanced by the combined use of that and RAR agonist. […] After four days cultivation, cells were collected by centrifugation (4° C., 1500 rpm, 5 minutes). After these cells were seeded onto 1 mL of a fresh growth medium, then 1 mL of 0.2 w/v % NBT solution and 20 μl of 20 μg/ml of TPA solution were added, and incubation was carried out in the incubator containing 5% CO2 at 37° C. for 30 minutes. Then, stained cell number and total cell number were counted on a cell counter. Meanwhile, the measurement was conducted three times by counting 200 cells or more at a time and a differentiation inducing rate was calculated from a mean value obtained by averaging them. […] Meanwhile, “inert” means that differentiation inducibility can not be observed even at 10 μM. Likewise, b) BA (bioactivity) (%) refers to the maximum differentiation inducing rate relative to the total cell number in this test.

RXRα = target: T1, RXRα (Homo sapiens, UniProt P19793); assay: RXR reporter gene assay (luciferase) in COS-1 cells, RXRα; type: cell-based; conditions: for Emax: COS-1; for EC50 / RXRα Emax (%): COS-1 cells; for EC50: half of maximum transcriptional activation potential; for RXRα Emax (%): relative to PA024 (1 μM) = 100%
T1 construct: expressed in transfected cells; host or cells: COS-1 cells
T1 sequence (P19793 1-462): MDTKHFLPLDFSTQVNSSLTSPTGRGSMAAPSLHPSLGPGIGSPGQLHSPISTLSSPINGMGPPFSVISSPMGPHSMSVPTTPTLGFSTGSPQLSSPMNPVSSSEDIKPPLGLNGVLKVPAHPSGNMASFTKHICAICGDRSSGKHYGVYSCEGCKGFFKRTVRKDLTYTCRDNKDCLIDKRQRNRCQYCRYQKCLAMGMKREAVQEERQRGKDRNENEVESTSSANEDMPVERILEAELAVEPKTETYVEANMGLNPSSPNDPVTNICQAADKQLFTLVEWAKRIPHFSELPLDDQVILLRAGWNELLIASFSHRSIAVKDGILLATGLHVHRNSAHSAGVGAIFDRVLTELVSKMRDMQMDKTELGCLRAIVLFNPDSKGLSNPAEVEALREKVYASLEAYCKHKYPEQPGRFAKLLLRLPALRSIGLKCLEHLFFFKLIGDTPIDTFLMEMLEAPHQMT
Description: (§1) Most of nuclear receptors are transcription factors associated with regulating transcription, so that reporter gene assay is conducted as a means of measuring its transcription activity. An expression plasmid for RXR receptor protein and a reporter plasmid were introduced into cells such as COS-1 cells and HeLa cells to cause overexpression. And, when RXR agonist is bound to the receptor, transcription is induced in a ligand dependent manner, and a protein which is referred to as fusion protein downstream is produced. The binding of this fusion protein to the binding site on the reporter plasmid initiates the transcription to produce luciferase downstream. RXR agonistic activity was measured by measuring this luciferase activity.
(§2) Dulbecco's Modified Eagle MEM medium (DMEM) was used as growth medium.
(§3) Passage was conducted by removing culture supernatant from the cell culture grown in a 100 mm culture dish, collecting cells by trypsinization, centrifuging at 1000 rpm at 4° C. for 3 minutes, then dispersing cells by adding growth medium and growing them in a 100 mm culture dish (15 mL of growth medium) at 37° C. in the presence of 5% CO2.
(§4) Transformation was conducted using Effectene™ Transfection Reagent (QIAGEN). Further, Luciferase Assay System was used for evaluating luciferase activity. Am80 was used for the positive control of RAR, and 9-cis retinoic acid was used for the positive control of RXR. They were dissolved in DMSO for use as a stock solution and measured on every plate to be assayed.
(§5) • On day 1: COS-1 cells were seeded along with 15 mL of growth medium in a 60 mm culture dish at 50×10^4 cells and were cultured over night. • On day 2: Transformation was conducted by lipofection using Effectene™ Transfection Reagent. • On day 3: 16 to 18 hours later, the culture supernatant was removed, cells were collected by trypsinization, centrifugation was conducted at 1000 rpm at 4° C. for 3 minutes, then cells were dispersed by adding growth medium, and then the cells were seeded on a 96-well white plate at 2.0×10^4 cells/well. Then, each compound was added at DMSO concentration of 1% or below. • On day 4: 24 hours later, 25 μL of the supernatant was used for SEAP measurement, and the rest cell-containing solution was used for measuring luciferase activity.
(§6) In Table 5, a) EC50 indicated a concentration giving the half of the maximum transcriptional activation potential.

RXRβ = target: T2, RXRβ (Homo sapiens, UniProt P28702); assay: RXR reporter gene assay (luciferase) in COS-1 cells, RXRβ; type: cell-based; conditions: for Emax: COS-1; for EC50 / RXRβ Emax (%): COS-1 cells; for EC50: half of maximum transcriptional activation potential; for RXRβ Emax (%): relative to PA024 (1 μM) = 100%
T2 construct: expressed in transfected cells; host or cells: COS-1 cells
T2 sequence (P28702 1-533): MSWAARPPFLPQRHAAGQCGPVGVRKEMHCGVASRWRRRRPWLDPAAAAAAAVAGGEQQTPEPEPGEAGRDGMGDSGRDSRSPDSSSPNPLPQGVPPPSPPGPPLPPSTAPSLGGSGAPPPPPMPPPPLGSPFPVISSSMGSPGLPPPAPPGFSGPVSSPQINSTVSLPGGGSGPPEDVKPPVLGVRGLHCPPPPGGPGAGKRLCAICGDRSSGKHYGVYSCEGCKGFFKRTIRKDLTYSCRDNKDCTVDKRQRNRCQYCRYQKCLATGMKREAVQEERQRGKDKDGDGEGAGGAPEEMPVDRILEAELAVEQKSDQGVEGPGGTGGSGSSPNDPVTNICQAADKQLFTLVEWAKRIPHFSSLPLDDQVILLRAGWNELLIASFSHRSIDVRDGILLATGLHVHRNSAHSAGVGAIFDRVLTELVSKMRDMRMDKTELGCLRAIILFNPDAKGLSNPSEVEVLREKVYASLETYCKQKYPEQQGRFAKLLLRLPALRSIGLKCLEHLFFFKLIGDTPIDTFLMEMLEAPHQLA
Description: as §1, §2, §3, §4, §5, §6

RXRγ = target: T3, RXRγ (Homo sapiens, UniProt P48443); assay: RXR reporter gene assay (luciferase) in COS-1 cells, RXRγ; type: cell-based; conditions: for Emax: COS-1; for EC50 / RXRγ Emax (%): COS-1 cells; for EC50: half of maximum transcriptional activation potential; for RXRγ Emax (%): relative to PA024 (1 μM) = 100%
T3 construct: expressed in transfected cells; host or cells: COS-1 cells
T3 sequence (P48443 1-463): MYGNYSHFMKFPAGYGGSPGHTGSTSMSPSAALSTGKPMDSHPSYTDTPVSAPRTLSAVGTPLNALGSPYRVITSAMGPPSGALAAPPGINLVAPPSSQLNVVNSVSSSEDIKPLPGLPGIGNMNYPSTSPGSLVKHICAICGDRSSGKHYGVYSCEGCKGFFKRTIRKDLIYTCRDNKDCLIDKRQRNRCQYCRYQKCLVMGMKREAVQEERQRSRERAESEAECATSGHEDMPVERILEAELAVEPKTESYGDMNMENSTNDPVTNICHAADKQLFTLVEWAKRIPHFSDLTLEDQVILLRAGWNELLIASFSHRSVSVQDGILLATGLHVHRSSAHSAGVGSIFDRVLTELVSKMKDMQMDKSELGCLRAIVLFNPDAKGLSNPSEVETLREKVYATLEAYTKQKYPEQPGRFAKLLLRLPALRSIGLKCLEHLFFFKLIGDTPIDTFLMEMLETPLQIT
Description: as §1, §2, §3, §4, §5, §6

[2] = test system: Histone Deacetylase (HDAC); assay: HDAC Activity/Inhibitor Screening Assay Kit (Cayman); type: biochemical; conditions: at 100 μM
Description: Activity Evaluation Method 3: Histone Deacetylase (HDAC) Inhibitory Activity
HDAC inhibitory activity was evaluated for compounds represented by formulae XVII and XVIII, through the use of HDAC Activity/Inhibitor Screening Assay Kit supplied by Cayman and according to that protocol.

[3] = test system: edema induced by carrageenin; assay: Carrageenin edema test; type: in vivo; conditions: rats, 10 mg/kg oral, 3 hours before carrageenin; 3 hours after the administration of carrageenin; hind foot pads
Description: Carrageenin edema test was used for anti-inflammatory test by using rats. 10 mg/kg compound 1a (NEt-3IP) was orally administered to five rats in a group, and then 3 hours later, 1% carrageenin solution, which was an edema-inducing substance, was subcutaneously administered to the hind foot pads (0.1 mL/rat). Then, 1, 2, 3 and 4 hours after that, the thickness of edema of the hind foot pads was measured. […] The rate of inhibiting edema was 27% 3 hours after the administration of carrageenin.

[4] = Am80 present at 3.3×10^−10 M, half of maximum differentiation inducing rate, read-out: Retinoid synergistic activity SEC50
[5] = Homo sapiens, HL-60, 96 h, test compound alone, concentration giving half of maximum differentiation inducing rate, four days culture, read-out: Retinoid activity EC50
[6] = test compound alone, concentration giving half of maximum differentiation inducing rate, four days culture, read-out: Retinoid activity EC50

SMILES | EC50 [1, 4] [nM] | Retinoid synergistic activity BA(%) ([1]; Am80 present at 3.3×10^−10 M) | Retinoid activity BA(%) ([1]; test compound alone) | EC50 (RXRα) [nM] | EC50 (RXRβ) [nM] | EC50 (RXRγ) [nM] | EC50 [1, 6] [nM] | further results
CCN(c1ccc(C(C)C)c(OC(C)C)c1)c1ncc(C(=O)O)cn1 [Compound 6a] | 12 | 87 | 3 | 6 | 18 | > 58 | – | EC50 [1, 5]: > 10000 nM; Emax (RXRα): 110%; Emax (RXRβ): 100%; Emax (RXRγ): 105%
CCCOc1cc(N(c2ccc(C(=O)O)cn2)S(C)(=O)=O)ccc1C(C)C [Compound 2b] | 800 | 63 | 50 | – | – | – | > 10000 | –
CC(C)Oc1ccc(Nc2ccc(C(=O)O)cn2)cc1C(C)C [Compound 4c] | > 10000 | 29 | 24 | – | – | – | > 10000 | –
CCN(c1ccc(C(C)C)c(OC(C)C)c1)c1ccc(/C=C/C(=O)O)cn1 [XVII] | – | – | – | – | – | – | – | HDAC activity inhibition rate [2]: 78%
CCN(c1ccc(C(C)C)c(OC(C)C)c1)c1ccc(C(=O)O)cn1 [Compound 1a] | 10 | 80 | 4 | 27 | 35 | > 380 | – | EC50 [1, 5]: > 10000 nM; Emax (RXRα): 130%; selectivity for RXRα/β over RXRγ (RXRα; reporter gene assay, RXRα/β versus RXRγ): ≥ 10 times; Emax (RXRβ): 110%; Emax (RXRγ): > 88%; rate of inhibiting edema [3]: 27%
CC(C)Oc1cc(Nc2ccc(C(=O)O)cn2)ccc1C(C)C [Compound 1c] | 4500 | 63 | 24 | – | – | – | > 10000 | –
CCCOc1cc(Nc2ccc(C(=O)O)cn2)ccc1C(C)C [Compound 2c] | 4300 | 60 | 50 | – | – | – | > 10000 | –
CC(C)Oc1cc(N(c2ccc(C(=O)O)cn2)S(C)(=O)=O)ccc1C(C)C [Compound 1b] | 900 | 63 | 44 | – | – | – | > 10000 | –
CCN(c1ccc(C(C)C)c(OCC(C)C)c1)c1ncc(C(=O)O)cn1 [Compound 7a] | – | – | – | 2.9 | 7.3 | 4.9 | – | RXRα Emax (%) (RXRα): 110%; RXRβ Emax (%) (RXRβ): 140%; RXRγ Emax (%) (RXRγ): 105%
CCN(c1ccc(OC(C)C)c(C(C)C)c1)c1ccc(C(=O)O)cn1 [Compound 4a] | 23 | 64 | – | > 660 | > 1300 | > 350 | > 10000 | RXRα Emax (%) (RXRα): >110%; RXRβ Emax (%) (RXRβ): >80%; RXRγ Emax (%) (RXRγ): >81%
CCCOc1cc(N(CC)c2ccc(C(=O)O)cn2)ccc1C(C)C [Compound 2a] | 23 | 74 | 4 | – | – | – | > 10000 | –
CCCOc1ccc(Nc2ccc(C(=O)O)cn2)cc1C(C)C [Compound 5c] | > 10000 | 15 | 3 | – | – | – | > 10000 | –
